This note sets out measurements from US20200147038A1, “ASSESSING AND TREATING PSYCHEDELIC-[…]” (Eleusis Benefit Corporation, PBC, priority 2017, published 2020).

“And” between values parts separate entries of the source, which are not always exact repeats. Identical values can stand only once.

Data set [1] can be described thus: Retrospective online survey of psilocybin users (Example 2; 5D-ASC Mystical-OBN / Adverse-DED, long-term change). The format is in vivo, human. Particulars: for Negative Change, Mean / Positive Change, Mean: 5-point scale, 3=no change; for Flourishing, Mean: 6-point scale; for Importance, Mean: slider scale 1 to 100. The text has this:
Participants were U.S. residents recruited through Amazon Mechanical Turk (MTurk; an online source in which individuals participate in survey studies for small cash compensation) who had ingested psilocybin within the past twelve months. The final screened sample consisted of 183 valid responses with 97 males (53.0%) and 85 females (46.4%) (1 missing), and an average age of 31.9 (SD=9.43) ranging from 18 to 70 years.
[…]. The six sections included background items, trait measures, prior state (i.e., life situation before psilocybin session), proximal state (i.e., emotions and motivation at ingestion), intrasession measures (i.e., the experience itself), and current state. Scaled items in all but the long-term outcomes used […] Likert scales ranging from 1=Strongly Disagree to 6=Strongly Agree. Open-ended questions designed to activate participants' relevant recollections were completed before responding to scale items related to prior state, proximal state, intrasession, and current status. Measures utilized in the regression models include the following;
Measures of intrasession experience based on items from six subscales of the 5D-ASC (Dittrich et al., A Pharmacopsychiatry 1998, 31:80; Studerus et al., PLoS ONE 2010, 5). Mystical-OBN used a mean of items measuring Oceanic Boundlessness (Studerus et al., PLoS ONE 2012, 7): “experience of unity”, “spiritual experience”, “blissful state”, and “insightfulness”. Adverse-DED was a mean of items associated with Dread of Ego Dissolution (Studerus et al., PLoS ONE 2012, 7): “impaired control and cognition”, and “anxiety.” Scores for Mystical-OBN ranged from 1-5.92 (M=3.87, SD=1.16; α=0.93), and scores for Adverse-DED ranged from 1-5.47 (M=2.25, SD=0.98, α=0.91).
Scale items measuring change based on pairs of adjectives adapted from Griffiths (2006). Individuals used a 5-point scale to indicate whether they had experienced a decrease, no change, or an increase in the characteristics. Positive change was calculated with the mean of nine items related to interpersonal traits, intrapersonal characteristics, and attitudes (Cronbach's α=0.929). Negative change was the mean of three items (α=0.883).
Analyses of the impact of mystical experience on long-term outcomes were conducted in two ways: (1) independent t-test comparisons of each long-term outcome based on a complete or not complete mystical experience, and (2) a path analysis of the mediating role of mystical experience on positive change.
Scores for importance were based on a slider scale ranging from 1 to 100. […] Flourishing was rated on a 6-point scale ranging from 1=strongly disagree to 6=strongly agree.

Data set [2] can be described thus: Retrospective online survey of individuals who had consumed psilocybin (Example 1; MEQ30, positive change). It counts as in vivo, human. The method, then: A retrospective survey study was conducted based on crowdsourced online data gathered from individuals who had volitionally consumed psilocybin within the past year. Data were collected about participants' traits and demographic background, and then individuals were primed to recall their life experience before, at the time of ingestion, during, and after the psilocybin before completing scales to measure hypothesized traits and states. Previously validated scales were used where available (e.g., Tellegen Absorption Scale, MEQ30), and new scales were developed and tested for traits and states without existing measures (mental barriers, identity distress, state of surrender). A hierarchical regression model was used to test the relationships, and a path analysis was conducted to test the mediating capacity of ME.
Participants were directed to the relevant webpage after reading informed consent text, completing screening and agreeing to participate in accordance with the stipulations of the Institutional Review Board. Scaled items in all but the long-term outcomes used 4-point Likert scales ranging from 1=Strongly Disagree to 4=Strongly Agree. Answers were required for each item, but each included an option “I prefer not to answer.”
Participants' experiences were measured in two pages on the survey. The first activated their recollection of the experience through an open-ended question asking them to describe their experience and specific fixed response questions about their experience, including whether their eyes were primarily open or closed and the extent to which they were talking or exposed to media with words during their experience. On the second page, subjects responded to […] intermixed items on a 4-point Likert scale from the Mystical Experience Questionnaire (MEQ30) and 36 items from the Sacred Emotions Scale (SES), measuring the extent to which they felt “exuberance” and “dread” during the experience.
The MEQ30 is a validated scale consisting of 30 items systematically validated and utilized in psychedelic studies. Some of the items from the MEQ30 were adapted for this study so that they were semantically consistent with the other scale (e.g., changed “I felt certain that I′d encountered ultimate reality” to “Certainty that I′d encountered ultimate reality”), and used a 4-point rather than a 7-point scale for reasons described above. The scale measures four dimensions of a mystical experience: (a) Mystical; 15 items with α=0.957, (b) Ineffability; 3 items with α=0.775, (c) Timelessness/Spacelessness; 6 items with α=0.844, and (d) Positive Affect; 6 items with α=0.851. The total scale produced Cronbach α=0.967. All of the reliability scores from this sample were similar to internal reliability scores produced in the norming sample (MacLean), which ranged from 0.831 to 0.936 for the four factors and 0.957 for the total scale.
Participants were asked to describe their current state in two pages. […] The second page offered 46 statements including 15 intermixed items adapted from the work of Griffiths et al., (Psychopharmacology 2006, 187:268-283) measuring
Data were collected on Amazon Mechanical Turk (MTurk), an online source in which individuals participate in survey studies for small cash compensation. […] Individuals who were registered as MTurk Workers from the U.S. indicated their interest by accepting the job or the “hit.” If individuals accepted the “hit,” they were directed to a screening page. If they passed those screening items, described below, they were given a link and password to the informed consent followed by the actual survey. • Screening
The mean number of correct attention items in the final sample was 11.5 of 12 (SD=1.02), and the mean for the non-selected group was 4.69 (SD=3.36) attention items answered correctly. The final sample consisted of 143 valid responses with 81 males and 62 females (43%), and an average age of 31.1 (SD=9.64), with ages ranging from 18 to 62 years. […]

Where [3] appears, read: Complete mystical experience, N=51.
Where [4] appears, read: None/partial mystical experience, N=129.

As for `CN(C)CCc1c[nH]c2cccc(OP(=O)(O)O)c12` [psilocybin], the “Adverse-DED score, mean” value in data set [1] (5D-ASC Dread of Ego Dissolution items, whole sample (183)) is on record as 2.25. Moreover, the “Mystical-OBN score, mean” value in data set [1] (5D-ASC Oceanic Boundlessness items, whole sample (183)) is listed as 3.87. Also, in data set [1] (setting [3]), the “Negative Change, Mean” value is 2.22; the “Positive Change, Mean” value turned out to be 4.00; the “Flourishing, Mean” value came out at 4.78; the “Importance, Mean” value was determined as 75.66. In data set [1] (setting [4]), the “Negative Change, Mean” value is 2.75 and 2.74; the “Positive Change, Mean” value is reported as 3.39; the “Flourishing, Mean” value was 4.39; the “Importance, Mean” value came out at 42.75. For the same molecule, the “proportion meeting criteria for a complete ME” value in data set [2] (MEQ30, >2.5 of 4 on all four subscales, whole sample) is reported as 58%. Moreover, in data set [2] (MEQ30, >2.5 of 4 on all subscales, experienced users, n=70), the “proportion with a full ME, experienced psychedelic users” value was 63%. In addition, the “proportion with a full ME, novice users” value in data set [2] (MEQ30, >2.5 of 4 on all subscales, novice users, n=13) came out at 42%. In addition, in data set [2] (MEQ30, cut point 3 of 4 on all subscales), the “proportion reporting complete MEs, reanalysis with cut point of 3” value is 45%. Besides, the “Positive Change, Mean” value in data set [2] (participants with Complete ME, N=83) is 3.8348. The “Positive Change, Mean” value in data set [2] (participants with No/Incomplete ME, N=60) is 3.2274. Besides, the “mean positive change score” value in data set [2] (whole sample (143 valid responses), higher scores = increases in positive emotions and decreases in negative emotions) is given as 3.58 (SD=0.65).
